{"source": "ChEMBL document CHEMBL1201862", "about": "“PubChem BioAssay data set” (2004)", "test_in_all_cases": "NCI tumour cell line growth inhibition, 48 h", "key": {"786-0": {"system": "786-0"}, "A498": {"system": "A498"}, "A549": {"system": "A549"}, "ACHN": {"system": "ACHN"}, "BT-549": {"system": "BT-549"}, "CAKI-1": {"system": "CAKI-1"}, "CCRF-CEM": {"system": "CCRF-CEM"}, "COLO 205": {"system": "COLO 205"}, "DU-145": {"system": "DU-145"}, "EKVX": {"system": "EKVX"}, "HCC 2998": {"system": "HCC 2998"}, "HCT-116": {"system": "HCT-116"}, "HCT-15": {"system": "HCT-15"}, "HL-60": {"system": "HL-60"}, "HOP-62": {"system": "HOP-62"}, "HOP-92": {"system": "HOP-92"}, "HT-29": {"system": "HT-29"}, "Hs-578T": {"system": "Hs-578T"}, "IGROV-1": {"system": "IGROV-1"}, "K562": {"system": "K562"}, "KM12": {"system": "KM12"}, "LOX IMVI": {"system": "LOX IMVI"}, "M14": {"system": "M14"}, "MCF7": {"system": "MCF7"}, "MDA-MB-231": {"system": "MDA-MB-231"}, "MDA-MB-435": {"system": "MDA-MB-435"}, "MDA-N": {"system": "MDA-N"}, "MOLT-4": {"system": "MOLT-4"}, "Malme-3M": {"system": "Malme-3M"}, "NCI-H226": {"system": "NCI-H226"}, "NCI-H23": {"system": "NCI-H23"}, "NCI-H460": {"system": "NCI-H460"}, "NCI-H522": {"system": "NCI-H522"}, "NCI/ADR-RES": {"system": "NCI/ADR-RES"}, "OVCAR-3": {"system": "OVCAR-3"}, "OVCAR-4": {"system": "OVCAR-4"}, "OVCAR-5": {"system": "OVCAR-5"}, "OVCAR-8": {"system": "OVCAR-8"}, "PC-3": {"system": "PC-3"}, "RPMI-8226": {"system": "RPMI-8226"}, "RXF 393": {"system": "RXF 393"}, "SF-268": {"system": "SF-268"}, "SF-295": {"system": "SF-295"}, "SF-539": {"system": "SF-539"}, "SK-MEL-28": {"system": "SK-MEL-28"}, "SK-MEL-2": {"system": "SK-MEL-2"}, "SK-MEL-5": {"system": "SK-MEL-5"}, "SK-OV-3": {"system": "SK-OV-3"}, "SN12C": {"system": "SN12C"}, "SNB-19": {"system": "SNB-19"}, "SNB-75": {"system": "SNB-75"}, "SR": {"system": "SR"}, "SW-620": {"system": "SW-620"}, "T47D": {"system": "T47D"}, "TK-10": {"system": "TK-10"}, "U-251": {"system": "U-251"}, "UACC-257": {"system": "UACC-257"}, "UACC-62": {"system": "UACC-62"}, "UO-31": {"system": "UO-31"}}, "note": "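Growth conditions: 96-well plates. Treatment: test compound, 48 hours, 5 concentrations. Analysis: linear interpolation between bracketing concentrations; unreached endpoints set to highest concentration. At the GI50, growth is halved.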 Active and inactive are the calls of the source. Cut-off read from the data, not from the text of the source: active = GI50 up to about 1.1 µM and inactive = higher.", "data": [{"smiles": "COc1ccc2c3c1OC1C(=O)C=CC4(O)C(C2)NCC[C@@]314", "note": "(some centres undefined)", "values": [{"measurement": "GI50", "setting": "786-0", "value": "1580 nM (inactive)"}, {"measurement": "GI50", "setting": "A498", "value": "3290 nM (inactive)"}, {"measurement": "GI50", "setting": "A549", "value": "4610 nM (inactive)"}, {"measurement": "GI50", "setting": "ACHN", "value": "2230 nM (inactive)"}, {"measurement": "GI50", "setting": "BT-549", "value": "1950 nM (inactive)"}, {"measurement": "GI50", "setting": "CAKI-1", "value": "2130 nM (inactive)"}, {"measurement": "GI50", "setting": "CCRF-CEM", "value": "574 nM (active)"}, {"measurement": "GI50", "setting": "COLO 205", "value": "1440 nM (inactive)"}, {"measurement": "GI50", "setting": "DU-145", "value": "3240 nM (inactive)"}, {"measurement": "GI50", "setting": "EKVX", "value": "2300 nM (inactive)"}, {"measurement": "GI50", "setting": "HCC 2998", "value": "2100 nM (inactive)"}, {"measurement": "GI50", "setting": "HCT-116", "value": "1730 nM (inactive)"}, {"measurement": "GI50", "setting": "HCT-15", "value": 2110, "unit": "nM"}, {"measurement": "GI50", "setting": "HL-60", "value": "1800 nM (inactive)"}, {"measurement": "GI50", "setting": "HOP-62", "value": "2390 nM (inactive)"}, {"measurement": "GI50", "setting": "HOP-92", "value": "5260 nM (inactive)"}, {"measurement": "GI50", "setting": "HT-29", "value": "2540 nM (inactive)"}, {"measurement": "GI50", "setting": "Hs-578T", "value": "2190 nM (inactive)"}, {"measurement": "GI50", "setting": "IGROV-1", "value": "5710 nM (inactive)"}, {"measurement": "GI50", "setting": "K562", "value": "2510 nM (inactive)"}, {"measurement": "GI50", "setting": "KM12", "value": "2840 nM (inactive)"}, {"measurement": "GI50", "setting": "LOX IMVI", "value": "1910 nM (inactive)"}, {"measurement": "GI50", "setting": "M14", "value": "2300 nM (inactive)"}, {"measurement": "GI50", "setting": "MCF7", "value": "1980 nM (inactive)"}, {"measurement": "GI50", "setting": "MDA-MB-231", "value": "2950 nM (inactive)"}, {"measurement": "GI50", "setting": "MDA-MB-435", "value": "1400 nM (inactive)"}, {"measurement": "GI50", "setting": "MDA-N", "value": "1260 nM (inactive)"}, {"measurement": "GI50", "setting": "MOLT-4", "value": "1280 nM (inactive)"}, {"measurement": "GI50", "setting": "Malme-3M", "value": "964 nM (active)"}, {"measurement": "GI50", "setting": "NCI-H226", "value": "8750 nM (inactive)"}, {"measurement": "GI50", "setting": "NCI-H23", "value": "2030 nM (inactive)"}, {"measurement": "GI50", "setting": "NCI-H460", "value": "3370 nM (inactive)"}, {"measurement": "GI50", "setting": "NCI-H522", "value": "556 nM (active)"}, {"measurement": "GI50", "setting": "NCI/ADR-RES", "value": "4000 nM (inactive)"}, {"measurement": "GI50", "setting": "OVCAR-3", "value": "1520 nM (inactive)"}, {"measurement": "GI50", "setting": "OVCAR-4", "value": "2620 nM (inactive)"}, {"measurement": "GI50", "setting": "OVCAR-5", "value": "2460 nM (inactive)"}, {"measurement": "GI50", "setting": "OVCAR-8", "value": "1690 nM (inactive)"}, {"measurement": "GI50", "setting": "PC-3", "value": "3300 nM (inactive)"}, {"measurement": "GI50", "setting": "RPMI-8226", "value": "1120 nM (inactive)"}, {"measurement": "GI50", "setting": "RXF 393", "value": "1390 nM (inactive)"}, {"measurement": "GI50", "setting": "SF-268", "value": "2070 nM (inactive)"}, {"measurement": "GI50", "setting": "SF-295", "value": "3690 nM (inactive)"}, {"measurement": "GI50", "setting": "SF-539", "value": "1550 nM (inactive)"}, {"measurement": "GI50", "setting": "SK-MEL-28", "value": "2920 nM (inactive)"}, {"measurement": "GI50", "setting": "SK-MEL-2", "value": "2400 nM (inactive)"}, {"measurement": "GI50", "setting": "SK-MEL-5", "value": "4160 nM (inactive)"}, {"measurement": "GI50", "setting": "SK-OV-3", "value": "3180 nM (inactive)"}, {"measurement": "GI50", "setting": "SN12C", "value": "1510 nM (inactive)"}, {"measurement": "GI50", "setting": "SNB-19", "value": "5550 nM (inactive)"}, {"measurement": "GI50", "setting": "SNB-75", "value": "1250 nM (inactive)"}, {"measurement": "GI50", "setting": "SR", "value": "1760 nM (inactive)"}, {"measurement": "GI50", "setting": "SW-620", "value": "1110 nM (active)"}, {"measurement": "GI50", "setting": "T47D", "value": "968 nM (active)"}, {"measurement": "GI50", "setting": "TK-10", "value": "1680 nM (inactive)"}, {"measurement": "GI50", "setting": "U-251", "value": "2130 nM (inactive)"}, {"measurement": "GI50", "setting": "UACC-257", "value": "1770 nM (inactive)"}, {"measurement": "GI50", "setting": "UACC-62", "value": "3440 nM (inactive)"}, {"measurement": "GI50", "setting": "UO-31", "value": "2100 nM (inactive)"}]}]}
